What was measured:
human skin explants = test: General morphology of living human skin explants (Masson trichrome); type: cell-based
Procedure: In particular, the following parameters were evaluated: • general skin morphology after staining with Masson trichrome, • acid glycosaminoglycan (GAG) content after alcian blue staining, • expression level of the hyaluronic acid CD44 receptor after immunolabeling of this receptor.
Thirty-three explants (approximately 10 mm in diameter) were taken from a person (P712AB36) undergoing abdominoplasty. The explants were divided into 11 groups of three explants and placed in special skin explant survival medium.
RetinOx+Day cream was applied on the explants at 1 mg/cm^2 on days D0, D2, D3, D6 and D8.
On D0, D2, D3, D6 and D8, 30 μA of products P1, P2 and P3 were deposited on filter paper disks placed on the explants.
On D0, the three explants in group CO were sampled and cut in two. One-half was fixed in ordinary Bouin's solution and the other half stored at −80° C. On D6 and D10, three explants from each group were sampled and treated in the same manner.
After 48 hours of fixing in ordinary Bouin's solution, samples were dried and impregnated in paraffin using a Leica 1020 automated tissue processor, then embedded according to operating procedure MO-H-153 using a Leica EG 1160 embedding station. 5 μm sections were prepared according to operating procedure MO-H-173 using a Leica RM 2125 Minot microtome and mounted on Superfrost® histologic glass microscope slides.
General morphology was studied on paraffin sections stained with Masson trichrome, Goldner variant, according to operating procedure MO-H-157.

normal human fibroblasts = test: Procollagen 1 production by normal human fibroblasts treated with supernatant of treated keratinocytes (EIA); type: cell-based; details: supernatant on fibroblasts 48 hrs; for % stimulation (procollagen 1): vs Control
Procedure: This experiment was carried out according to the method described in example 3. Fibroblast supernatants, containing procollagen 1, were collected and assayed immediately for procollagen 1 by means of an EIA microtiter plate.
After 48 hours of treatment, NHF cell supernatants were collected and centrifuged.
Procollagen 1 was assayed in the cell supernatants by the method described in the Procollagen Type 1 C-peptide EIA kit (MK101, Takara). This is an EIA assay with spectrophotometric detection at 450 nm (Safire, Tecan).
Duplicate determinations were carried out for two wells whereas the third well was assayed only once.
Optical densities (OD) measured on each sample were plotted on a graph (specific standard curve in the kit). The procollagen 1 concentration was expressed in ng/ml.
As in example 3, the protein content was determined in the cell pellets of the supernatants for which procollagen 1 was assayed.
Thus, the final result was expressed as ng/ml of procollagen 1 per μg of protein. A mean value was calculated for wells treated with the same concentration of test product. This mean was compared with the mean of the control wells (Student t test−comparison of means, significant difference at 95% if p<0.05* and at 99% if p<0.01**).
The percent stimulation produced by the test products was determined by comparing the mean values of the control and treatment conditions: % Stimulation=(Treated−Control)/Control

CC(=O)N[C@H]1C(O)O[C@H](COP(=O)(O)O)[C@@H](O)[C@@H]1O (stereo partly drawn) [NAG6P, N-acetylglucosamine-6-phosphate]
General morphology (human skin explants; D10, NAG6P): considerable modifications of epidermal morphology | General morphology (human skin explants; D10, NAG6P 0.01% (product P3)): clear reorganization/strengthening of the dermal-epidermal junction | General morphology (human skin explants; D10, NAG6P, listed as N-acetylglucosamine-6-phosphate): does not cause acanthosis | Procollagen 1 (normal human fibroblasts; 5 mM on keratinocytes 48 hrs): 653.4 ± 36.6 ng/mL | Procollagen 1 (ng/ml/μg prot.) (normal human fibroblasts; 5 mM on keratinocytes 48 hrs): 74.6 ± 5.3 ng/ml/μg prot. | % stimulation (procollagen 1) (normal human fibroblasts; 5 mM on keratinocytes 48 hrs): 2% | Procollagen 1 (normal human fibroblasts; 10 mM on keratinocytes 48 hrs): 677.7 ± 64.6 ng/mL | Procollagen 1 (ng/ml/μg prot.) (normal human fibroblasts; 10 mM on keratinocytes 48 hrs): 72.7 ± 4.4 ng/ml/μg prot. | % stimulation (procollagen 1) (normal human fibroblasts; 10 mM on keratinocytes 48 hrs): −1%

— patent publication US9907760B2 (LIBRAGEN, priority 2010, dated 2018)
